Assays:
[1] = tested on: ethanol/HCl-induced gastric lesions; assay: Ethanol/HCl-induced gastric lesion (ulcer) model in mice; format: in vivo; settings: for inhibition in vivo at 25 mg/kg: Mus musculus, po, read-out: Gastroprotective effect: % Lesion reduction; for Gastroprotective effect: Lesion index: mean ± SD, sum of lesion lengths
Experimental: The gastroprotective activity of the compounds was determined in the ethanol/HCl-induced lesion model in mice. The purity of the tested compounds was higher than 95% by NMR analysis. Male Swiss albino mice weighing 30 ± 3 g were used. Animals were fed on certified Champion diet with free access to water under standard conditions of 12 h dark-light period, 50% relative humidity and 22 °C room temperature. Mice were randomly distributed into groups of eight animals each and fasted for 24 h with free access to water previous to the experiment. Fasting prior to ulcerogenic assays was used because 0.2 mL of the reference antisecretory drug lansoprazole (2-[[[3-methyl-4-(2,2,2-trifluroethoxy)-2-pyridyl]methyl]sulfinyl]benzimidazole) and the amides were administered orally. To keep the animal number to a minimum, dose-response studies were performed with the leucine derivatives 13 and 18 to set the conditions for single-dose comparison of gastroprotective effect. For the selected parent compounds, three doses were used: 25, 50 and 100 mg/kg. Fifty min after oral administration of the compounds, lansoprazole (20 mg/kg) or the vehicle (12% Tween 80, 10 mL/kg), all groups were orally treated with 0.2 mL of a solution containing 60% ethanol/0.3 M HCl (ethanol/HCl) for gastric lesion induction. Animals were sacrificed by cervical dislocation 1 h after the administration of ethanol/HCl, and the stomachs excised and inflated by injection of 5% formalin (1 mL). The ulcerated stomachs were fixed in 5% formalin for 30 min and opened along the greater curvature. The length (mm) of each lesion was measured, and the lesion index expressed as the sum of the length of all lesions. For comparison purposes, the products 1-5, 7-12, 14-16, 19 and 20 were assessed at a single oral dose of 25 mg/kg. The protocols were approved by the Universidad de Talca Institutional Animal Care and Use Committee, which follows the recommendations of the Canadian Council on Animal Care. Tween 80 and lansoprazole (> 98% purity by HPLC) were purchased from Sigma Chemical Co.
Results were expressed as the mean ± SD. In all experiments, statistical differences between several treatments and their respective control were determined by one-way analysis of variance (ANOVA) and when the F value was significant, post hoc differences were determined by the Dunnett's multiple comparison test. The level of significance was set at P < 0.05. All statistical analyses were performed using the software Statistica 5.1 (StatSoft, Inc.) and Statistical Package S-Plus 2000.

[2] = Cytotoxicity, neutral red uptake assay, MRC-5; format: cell-based; settings: human, MRC-5 normal lung fibroblasts, confluent monolayers, confluent cultures, 0-1000 µM, mean ± SD
Experimental: (§1) Human normal lung fibroblasts MRC-5 (ATCC CCL-171) and Hep G2 cells (ATCC HB-8065) were grown as monolayers in minimum essential Eagle´s medium (MEM), with Earle's salts, 2.0 mM L-glutamine (Sigma Chemical Co.) and 2.0 g/L sodium bicarbonate (Sigma Chemical Co.), supplemented with 10% heat-inactivated fetal bovine serum (FBS), 100 IU/mL penicillin and 100 µg/mL streptomycin in a humidified incubator with 5% CO2 in air at 37 °C. Cell passage was maintained between 10 and 16 for MRC-5 and between 79 and 82 for Hep G2 cells. The medium was changed every 2 days. Culture media, antibiotics and FBS were obtained from Invitrogen Corp.
(§2) Confluent cultures of MRC-5, AGS and Hep G2 cells were treated with medium containing the compounds at concentrations ranging from 0 up to 1000 µM. The products were first dissolved in DMSO and then in the corresponding culture medium supplemented with 2% FBS. The final content of DMSO in the test medium and controls was 1%. Cells were exposed for 24 h to the assayed compounds. Untreated cells served as controls. Each concentration was tested in quadruplicate together with the control and repeated three times in separate experiments. At the end of the incubation, the neutral red uptake (NRU) assay was carried out to determine cell viability. To calculate the IC50 values (concentration that produces a 50% inhibitory effect on the evaluated parameter) the results were transformed to percentage of controls and the IC50 value was graphically obtained from the dose-response curves.

[3] = Cytotoxicity, neutral red uptake assay, AGS; format: cell-based; settings: human, AGS gastric adenocarcinoma cells, confluent monolayers, confluent cultures, 0-1000 µM, mean ± SD
Experimental: as §2, with “Human gastric adenocarcinoma cells AGS (ATCC CRL-1739) were grown as monolayers in Ham F-12 medium containing 1.0 mM L-glutamine and 1.5 g/L sodium bicarbonate, supplemented with 10% heat-inactivated FBS, 100 IU/mL penicillin and 100 µg/mL streptomycin in a humidified incubator with 5% CO2 in air at 37 °C. The cell passage was maintained between 42 and 48. The medium was changed every 2 days. Confluent” for “Confluent”

[4] = Cytotoxicity, neutral red uptake assay, Hep G2; format: cell-based; settings: human, Hep G2 cells, confluent monolayers, confluent cultures, 0-1000 µM, mean ± SD
Experimental: as §1, §2

[5] = single oral dose 25 mg/kg, compared with untreated controls

SMILES | inhibition in vivo at 25 mg/kg [1, 5] [%] | Gastroprotective effect: Lesion index ([1]; single oral dose 25 mg/kg) [mm] | IC50 at 24 h [2] [µM] | IC50 at 24 h [3] [µM] | IC50 at 24 h [4] [µM] | gastric lesion reduction at the higher doses ([1]; dose-response study, higher oral doses (50 and 100 mg/kg)) | Gastroprotective effect: % Lesion reduction ([1]; single oral dose 25 mg/kg, compared with untreated controls, 25 mg/kg) [%] | Gastroprotective effect: Lesion index ([1]; single oral dose 25 mg/kg, 25 mg/kg) [mm]
COC(=O)CNC(=O)C[C@H](C)CCC1=C(C)CCC2[C@@](C)(C(=O)O)CCC[C@]12C (some centres unmarked) [Compound 1, Labd-8(9)-en-15,19-dioic acid, 15-glycyl methyl ester amide] | 73.3 | 12.3 ± 7.6 | 447 ± 26 | 189 ± 9 | 242 ± 13 | – | – | –
COC(=O)[C@@H](NC(=O)C[C@H](C)CCC1=C(C)CCC2[C@@](C)(C(=O)O)CCC[C@]12C)C(C)C (some centres unmarked) [Compound 2, Labd-8(9)-en-15,19-dioic acid, 15-valyl methyl ester amide] | 58.5 | 19.1 ± 8.3 | > 1000 | > 1000 | > 1000 | – | – | –
COC(=O)[C@H](CC(C)C)NC(=O)C[C@H](C)CCC1=C(C)CCC2[C@@](C)(C(=O)O)CCC[C@]12C (some centres unmarked) [Compound 3, Labd-8(9)-en-15,19-dioic acid, 15-leucyl methyl ester amide] | 72.6 | 12.6 ± 6.8 | > 1000 | 445 ± 27 | 806 ± 32 | – | – | –
COC(=O)[C@@H]1CCCN1C(=O)C[C@H](C)CCC1=C(C)CCC2[C@@](C)(C(=O)O)CCC[C@]12C (some centres unmarked) [Compound 4, Labd-8(9)-en-15,19-dioic acid, 15-prolyl methyl ester amide] | 70.9 | 13.4 ± 6.8 | 288 ± 11 | 167 ± 7 | 321 ± 14 | – | – | –
COC(=O)[C@H](Cc1c[nH]c2ccccc12)NC(=O)C[C@H](C)CCC1=C(C)CCC2[C@@](C)(C(=O)O)CCC[C@]12C (some centres unmarked) [Compound 5, Labd-8(9)-en-15,19-dioic acid, 15-tryptophanyl methyl ester amide] | 25.4 | 34.3 ±12.0 | 260 ± 15 | 149 ± 7 | 291 ± 11 | – | – | –
COC(=O)[C@@H]1CCCN1C(=O)[C@@]1(C)CCC[C@]2(C)C(CC[C@@H](C)CC(=O)O)=C(C)CCC12 (some centres unmarked) [Compound 7, Labd-8(9)-en-15,19-dioic acid, 19-prolyl methyl ester amide] | 53.9 | 21.2 ± 9.5 | 459 ± 32 | 266 ± 16 | 364 ± 15 | – | – | –
COC(=O)CNC(=O)C[C@H](C)CCC1=C(C)CCC2[C@@](C)(C(=O)NCC(=O)OC)CCC[C@]12C (some centres unmarked) [Compound 8, Labd-8(9)-en-15,19-dioic acid, 15,19-diglycyl methyl ester amide] | 62 | 17.5 ± 9.9 | 890 ± 45 | 592 ± 30 | 841 ± 42 | – | – | –
COC(=O)[C@@H]1CCCN1C(=O)C[C@H](C)CCC1=C(C)CCC2[C@@](C)(C(=O)N3CCC[C@H]3C(=O)OC)CCC[C@]12C (some centres unmarked) [Compound 9, Labd-8(9)-en-15,19-dioic acid, 15,19-diprolyl methyl ester amide] | 60 | 18.4 ± 11.3 | 119 ± 7 | 82 ± 4 | 67 ± 3 | – | – | –
COC(=O)[C@H](Cc1c[nH]c2ccccc12)NC(=O)C[C@H](C)CCC1=C(C)CCC2[C@@](C)(C(=O)N[C@@H](Cc3c[nH]c4ccccc34)C(=O)OC)CCC[C@]12C (some centres unmarked) [Compound 10, Labd-8(9)-en-15,19-dioic acid, 15,19-ditryptophanyl methyl ester amide] | 61.7 | 17.6 ± 7.8 | > 1000 | > 1000 | > 1000 | – | – | –
C=C1CCC2[C@](C)(CCC[C@]2(C)C(=O)O)[C@H]1CC[C@@H](C)CC(=O)NCC(=O)OC (some centres unmarked) [Compound 11, Labd-8(17)-en-15,19-dioic acid, 15-glycyl methyl ester amide] | 71.9 | 12.9 ± 8.1 | > 1000 | 361 ± 18 | 541 ± 22 | – | – | –
C=C1CCC2[C@](C)(CCC[C@]2(C)C(=O)O)[C@H]1CC[C@@H](C)CC(=O)N[C@H](C(=O)OC)C(C)C (some centres unmarked) [Compound 12, Labd-8(17)-en-15,19-dioic acid, 15-valyl methyl ester amide] | 66.5 | 15.4 ± 8.8 | 380 ± 19 | 309 ± 18 | 673 ± 34 | – | – | –
C=C1CCC2[C@](C)(CCC[C@]2(C)C(=O)O)[C@H]1CC[C@@H](C)CC(=O)N[C@@H](CC(C)C)C(=O)OC (some centres unmarked) [Compound 13, Labd-8(17)-en-15,19-dioic acid, 15-leucyl methyl ester amide] | ~65.6 | – | 449 ± 29 | 308 ± 17 | 808 ± 48 | 79-89% | 65.6 | 15.8 ± 6.2
C=C1CCC2[C@](C)(CCC[C@]2(C)C(=O)O)[C@H]1CC[C@@H](C)CC(=O)N1CCC[C@H]1C(=O)OC (some centres unmarked) [Compound 14, Labd-8(17)-en-15,19-dioic acid, 15-prolyl methyl ester amide] | 59.8 | 18.5 ± 11.8 | > 1000 | 297 ± 14 | 894 ± 56 | – | – | –
C=C1CCC2[C@](C)(CCC[C@]2(C)C(=O)O)[C@H]1CC[C@@H](C)CC(=O)N[C@@H](Cc1c[nH]c2ccccc12)C(=O)OC (some centres unmarked) [Compound 15, Labd-8(17)-en-15,19-dioic acid, 15-tryptophanyl methyl ester amide] | 73.7 | 12.1 ± 4.7 | > 1000 | > 1000 | > 1000 | – | – | –
C=C1CCC2[C@](C)(CCC[C@]2(C)C(=O)NCC(=O)OC)[C@H]1CC[C@@H](C)CC(=O)NCC(=O)OC (some centres unmarked) [Compound 16, Labd-8(17)-en-15,19-dioic acid, 15,19-diglycyl methyl ester amide] | 73.5 | 12.2 ± 6.9 | > 1000 | 483 ± 29 | 529 ± 36 | – | – | –

Reference: article PMC6259277, “Synthesis, Gastroprotective Effect and Cytotoxicity of New Amino Acid Diterpene Monoamides and Diamides” (Molecules, 2010)
